Assay results as given in PubChem BioAssay (NCI).
“And” between values parts separate entries of the source, which are not always exact repeats. Identical values can stand only once.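 Each compound was tested at five concentrations against cells in 96-well plates for 48 hours. GI50 is the concentration that inhibits growth by half. At the TGI there is no net growth.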

What was measured:
Test in all cases: NCI-60 cell line screen, 48 h
[1] = system: ACHN renal
[2] = system: HCT-116 colon
[3] = system: HT29 colon
[4] = system: K-562 leukemia
[5] = system: MALME-3M melanoma
[6] = system: NCI-H522 lung
[7] = system: SK-MEL-2 melanoma
[8] = system: SK-MEL-28 melanoma
[9] = system: SK-OV-3 ovarian
[10] = system: SW-620 colon

SMILES | GI50 [1] | TGI [1] | GI50 [2] | TGI [2] | GI50 [3] | TGI [3] | GI50 [4] | TGI [4] | GI50 [5] | TGI [5] | GI50 [6] | TGI [6] | GI50 [7] | TGI [7] | GI50 [8] | TGI [8] | GI50 [9] | TGI [9] | GI50 [10] | TGI [10]
CCN(CC)CCNC(=O)c1c(C)[nH]c(/C=C2\C(=O)Nc3ccc(F)cc32)c1C | 1.77 µM and 1.53 µM and 1.32 µM | > 10 µM and 6.48 µM and 9.5 µM | 1.32 µM and 1.38 µM and 1.16 µM | 5.25 µM and 3.85 µM and 3.09 µM | 1.07 µM and 1.3 µM and 1.54 µM | 5.21 µM and 4.99 µM and 3.69 µM | 2.29 µM and 3.22 µM and 1.53 µM | > 10 µM and 9.75 µM and 5.57 µM | 1.87 µM and 2.18 µM and 1.16 µM | 6.55 µM and 5.1 µM and 2.91 µM | 6.2 µM and 3.52 µM and 2.73 µM | > 10 µM and 6.92 µM and 6.1 µM | 1.38 µM and 2.1 µM and 4.56 µM | 9.46 µM and 4.82 µM and 13.2 µM | 2.47 µM and 3 µM and 1.57 µM | > 10 µM and 5.89 µM and 3.31 µM | 2.44 µM and 2.26 µM and 3.51 µM | > 10 µM and 5.43 µM and 19.6 µM | 1.76 µM and 1.95 µM and 1.4 µM | 7.67 µM and 5.22 µM and 4.22 µM
C=C1CC2(OC1=O)C(=O)N(CCCN1C(=O)C3(CC(=C)C(=O)O3)c3ccccc31)c1ccccc12 (stereo not given) | 1.15 µM | 2.36 µM | 1.84 µM | 3.75 µM | 1.85 µM | 4.91 µM | 0.385 µM | 2.07 µM | 1.7 µM | 3.21 µM | 0.444 µM | 1.87 µM | 10.4 µM | 32.3 µM | 1.92 µM | 3.61 µM | 11.4 µM | 23.7 µM | 0.594 µM | 2.08 µM
O=C(/C=C/c1ccccc1)CC(c1ccccc1)N1CCOCC1 (stereo not given) | 2.03 µM | 4.4 µM | 1.15 µM | 2.37 µM | 3.7 µM | 16.7 µM | 3.4 µM | 21.8 µM | 4.4 µM | 19.9 µM | 4.1 µM | 20 µM | 26.5 µM | 66.9 µM | 13.8 µM | 30 µM | 14.4 µM | 30.7 µM | 2.33 µM | 4.91 µM
COC1OC(C)C(OCc2ccccc2)C(OS(=O)(=O)c2ccc(C)cc2)C1OS(=O)(=O)c1ccc(C)cc1 (stereo not given) |  | > 100 µM |  | > 100 µM |  | > 100 µM |  | > 100 µM |  | > 100 µM |  | > 100 µM |  | > 100 µM |  | > 100 µM |  | > 100 µM |  | > 100 µM
Cc1nc(Nc2n[nH]c3c2CN(C(=O)N[C@H](CN(C)C)c2ccccc2)C3(C)C)c2sccc2n1 | 0.432 µM and 0.337 µM | > 75 µM | 0.00577 µM and < 0.01 µM | > 5.74 µM and 10.3 µM | 0.0238 µM and 0.0313 µM | 2.75 µM and 5.59 µM | 0.0242 µM and 0.199 µM | > 100 µM | 0.0473 µM and < 0.01 µM | 0.497 µM and 2.44 µM | < 0.0168 µM and 0.0398 µM | 2.28 µM and 2.74 µM | 0.0211 µM and 0.0149 µM | 1.01 µM and 2.8 µM | 0.013 µM and < 0.01 µM | 1.12 µM and 4.31 µM | 0.317 µM and 0.205 µM | > 5.94 µM and 14.7 µM | 0.0244 µM and 0.0346 µM | > 38.7 µM
C=CCSc1nc2ccccc2c(=O)n1Cc1ccco1 |  | > 100 µM |  | > 100 µM |  | > 100 µM |  | > 100 µM |  | > 100 µM |  | > 100 µM |  | > 100 µM |  | > 100 µM |  | > 100 µM |  | > 100 µM
NC(=O)/C=C/C(=O)O |  | > 5000 µM |  | > 5000 µM |  | > 5000 µM |  | > 5000 µM |  | > 5000 µM |  | > 5000 µM |  | > 5000 µM |  | > 5000 µM |  | > 5000 µM |  | > 5000 µM
